This note sets out measurements from ChEMBL document CHEMBL1139319, “Notoamides F-K, prenylated indole alkaloids isolated from a marine-derived Aspergillus sp” (J Nat Prod, 2008).

Values after ≈ are worked out from the molar mass of the structure shown.

The term IC50 denotes the concentration that gives 50% inhibition. A low value points to higher potency.

The assay concerns HeLa. The experiment in a line: Cytotoxicity against human HeLa cells after 3 days by MTT assay. It is filed as functional, cell-based. The conditions noted are these: 72 h. (Formazan colour is commonly taken as a measure of viable cells.)
In the case of `CO[C@H]1c2c([nH]c3c4c(ccc23)OC(C)(C)C=C4)C(C)(C)[C@@H]2C[C@]34CCCN3C(=O)[C@]12NC4=O` [NOTOAMIDE F], the half-maximal inhibitory concentration (IC50) is greater than 50 µg/mL.
Next, `CC1(C)C=Cc2c(ccc3c4c([nH]c23)C(C)(C)[C@@H]2C[C@]35CCCN3C(=O)[C@]2(NC5=O)C4=O)O1` [NOTOAMIDE I]: 21 µg/mL (≈ 47.1 µM).
Next, `C=CC(C)(C)[C@]1(C[C@@H]2NC(=O)[C@@H]3CCCN3C2=O)C(=O)Nc2cc(O)ccc21` [NOTOAMIDE J]: greater than 50 µg/mL; `C=CC(C)(C)[C@@]12Nc3c(ccc4c3C=CC(C)(C)O4)[C@]1(O)C[C@]1(O)C(=O)N3CCC[C@H]3C(=O)N21` [NOTOAMIDE K]: greater than 50 µg/mL.
